Assay results reported in patent publication US8478395B2, “Method of measuring electrical resistance value of corneal trans-epithelium” (Nagasaki University, priority 2008, dated 2013).

Legend:
[1] = test system: cornea of a living rabbit; test: Living corneal TER measurement requiring no anterior chamber centesis (conjunctival sac method); format: in vivo; conditions: 0.02% BAC
Experimental: Evaluation of Corneal Disorder Due to BAC by Living Corneal TER Measurement Requiring No Anterior Chamber Centesis (Referred to as Conjunctival Sac Method) (FIG. 1)
Silver-silver chloride electrode having a rod shape was placed on a cornea and into a conjunctival sac of a living rabbit, and a 0.02% BAC was administered thereto. A change in the corneal TER due to exposure to BAC was measured by a voltage-electric resistance value measuring device. A rubber ring (6 mm in the inner diameter) was fixed onto the cornea around the periphery of the electrode by using a bioadhesive (Aron alpha A from Sankyo Co., Ltd.) for insulation, so that an electric current is surely passed through the epithelium of the cornea. An AC current of ±20 μA was flowed, and a change curve of TER, a reduction of TER and a TER value after a lapse of 60 seconds from the exposure to 0.02% BAC, were compared with those from the conventional measuring method in which the anterior chamber centesis was carried out (comparative example 1). The TER value was calculated by subtracting an electric resistance value between the anterior chamber and the conjunctival sac obtained in a preliminary experiment from the measured value.

[2] = test system: cornea of a rabbit; test: Living corneal TER measurement using anterior chamber centesis (anterior chamber centesis method); format: in vivo; conditions: 0.02% BAC
Experimental: Evaluation of Corneal Disorder Due to BAC by Living Corneal TER Measurement Using Anterior Chamber Centesis (Referred to as “Anterior Chamber Centesis Method”)
In accordance with the method described in non-Patent Document 4 supra, electrodes were placed on a cornea and into an anterior chamber of a rabbit, and after administration of 0.02% BAC, a corneal TER was measured.

[3] = test system: cornea of a living rabbit; test: Corneal TER measurement with the integrated TER measuring device of FIG. 6; format: in vivo, Japanese white rabbit; conditions: 0.02% BAC dropped onto the eye, one minute after the administration, device of FIG. 6, n=3
From the text: A silver electrode and a silver-silver chloride electrode having a diameter of 1 mm were placed on a round cover glass having a diameter of 12 mm. PDMS having a circular cylinder shape with 10 mm in diameter and 6 mm in inner diameter and having a curvature radius of the corneal contact surface of 7.9 mm was secured onto the cover glass by using an adhesive. An Eppendorf tube was attached to a rear side (on the side opposite to the corneal contact surface (cover glass side)) for mount onto a slit-lamp. The inner space of the PDMS was filled with an atelocollagen gel and its curvature radius was adjusted to 7.9 mm.
A silver electrode and a silver chloride electrode having a diameter of 1 mm were placed on a PET sheet of 0.005×0.5×1 cm, at position of 1 mm from the distal end of the sheet on the eyeball side. The PET sheet, the silver electrode and the silver chloride electrode were thinly coated with a collagen gel. […]
By using thus prepared TER measuring device, a change in the corneal TER of a living rabbit was measured. […]
A 0.02% BAC was dropped onto the eye of the rabbit, and the resulting TER value was compared with the TER value before the administration. […] Prior to the BAC administration (indicated as “normal cornea” in FIG. 7) as well as after the BAC administration, within one second after the device was contacted with the cornea, a stable TER value could be measured.

TER value ([1]; after a lapse of 60 seconds): 175±14 Ωcm^2 | TER (TER before the administration of the BAC set to 100%) ([1]; after a lapse of 60 seconds, p<0.01): 13.5±2.1% | TER (TER before the administration of the BAC set to 100%) ([1]; ten seconds after the administration): 35.1±6.8% | TER (TER before the administration of the BAC set to 100%) ([2]; 60 seconds after the administration): 19.7±5.9% | TER value ([2]; after a lapse of 60 seconds): 138±10 Ωcm^2 | Change of TER compared with the TER value before the administration [3]: significantly reduced
Substance: benzalkonium chloride [BAC]
